For 13 compounds, TGI and GI50 results are on record in PubChem BioAssay (NCI).

Some test systems named below: HCT-116 colon; CAKI-1 renal; UO-31 renal; EKVX NSCLC; K-562 leukemia; U251 CNS; OVCAR-8 ovarian; A549 NSCLC; ACHN renal; HS 578T breast.
What all share (assay): growth of human tumour cells (NCI), 48 h

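Five compound concentrations were applied to cells in 96-well plates for 48 hours; endpoints were derived by simple linear interpolation of the resulting dose-response curve. Here, GI50 denotes the concentration required for 50% inhibition of growth. Definition used: TGI = concentration required for complete inhibition of growth.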 Bounds are passed on as bounds.

As to `CNC(=O)OCc1c(CO)nc(SC)n1C`, the TGI in the test on HCT-116 colon, in the test on CAKI-1 renal, with UO-31 renal, in the test with EKVX NSCLC, in the test on K-562 leukemia and in the test with U251 CNS was greater than 100 µM in each case. For the same compound, the TGI in the test on OVCAR-8 ovarian and in the test with A549 NSCLC was greater than 100 µM throughout.

Take `CC1=NN(c2cccc(Cl)c2)C2(SCC(=O)N2c2nc3ccccc3s2)/C1=C\c1cccs1` (stereo unspecified): the TGI with HCT-116 colon was 52.1 µM; in the test with CAKI-1 renal, 99 µM; in the test on UO-31 renal it was 60.2 µM; in the test on EKVX NSCLC, 38.4 µM; with K-562 leukemia, 26.4 µM; in the test on U251 CNS, 41.6 µM. Also, the TGI with ACHN renal is greater than 100 µM; with OVCAR-8 ovarian, 51.8 µM; in the test on HS 578T breast, 59 µM; with A549 NSCLC, 92.8 µM.

As for `Fc1ccc(C(OCCN2CCC3CCC(C2)N3C/C=C/c2ccco2)c2ccc(F)cc2)cc1` (stereo unspecified), the TGI turned out to be 18.5 µM in the test with HCT-116 colon; 27.9 µM in the test with CAKI-1 renal; 28.8 µM with UO-31 renal; 20.7 µM in the test with K-562 leukemia; 21.1 µM in the test on U251 CNS; 25.3 µM in the test with ACHN renal. Also, the TGI in the test with OVCAR-8 ovarian was 19.6 µM; with HS 578T breast it was 34.3 µM; with A549 NSCLC, 29.5 µM.

In the case of `COc1cccc2c1Cc1cc(-c3ccccc3)[n+](C)n1-2`, the TGI was 15.8 µM with HCT-116 colon; greater than 100 µM with CAKI-1 renal; 90.8 µM with UO-31 renal; 8.22 µM in the test on EKVX NSCLC; greater than 100 µM in the test with K-562 leukemia; greater than 100 µM in the test on U251 CNS. For the same compound, the TGI is 79.9 µM with ACHN renal, greater than 100 µM with OVCAR-8 ovarian, greater than 100 µM in the test on HS 578T breast and greater than 100 µM in the test with A549 NSCLC.

As to `COc1cc2c(ccc3c4cc(OC)c(OC)cc4c[n+](C)c23)cc1O`, the TGI is greater than 60.3 µM in the test with HCT-116 colon; greater than 75 µM in the test on CAKI-1 renal; greater than 75 µM in the test with UO-31 renal; greater than 71.5 µM in the test on EKVX NSCLC; greater than 75 µM in the test on K-562 leukemia; 2.94 µM in the test with U251 CNS. The TGI is 62 µM in the test on OVCAR-8 ovarian and greater than 75 µM in the test on A549 NSCLC.

In the case of `Cc1nn(-c2ccccc2)c(C)c1/C=N/N=C1\SCC(=O)N1c1ccccc1`, the TGI in the test with HCT-116 colon was 36.5 µM; in the test on CAKI-1 renal, 44.9 µM; with UO-31 renal, 51.1 µM; in the test with EKVX NSCLC, 47.1 µM; in the test on K-562 leukemia, greater than 100 µM; in the test with U251 CNS, 69.3 µM. The TGI in the test with ACHN renal was 34.4 µM; with OVCAR-8 ovarian, 55.1 µM; in the test on HS 578T breast, greater than 100 µM; with A549 NSCLC, 99.6 µM.

On to `CCC1CN(C(=O)c2ccccc2)C(Cc2c[nH]c3ccccc23)C(=O)C1CC(=O)OC` (stereo unspecified), for which the TGI in the test with CAKI-1 renal, in the test on UO-31 renal, in the test on EKVX NSCLC, in the test on K-562 leukemia, with U251 CNS and with ACHN renal was greater than 100 µM each time. The TGI with OVCAR-8 ovarian and in the test with HS 578T breast was greater than 100 µM each time.

Turning to `CCCNC(=O)CCC(C)C1CCC2C3C(C[C@H](OC(C)=O)[C@]12C)[C@@]1(C)CCC2(C[C@H]1C[C@H]3OC(C)=O)OOC1(CC[C@]3(C)C4C[C@H](OC(C)=O)[C@]5(C)C(C(C)CCC(=O)NCCC)CCC5C4[C@H](OC(C)=O)C[C@@H]3C1)OO2` (stereo partly specified), the TGI with HCT-116 colon was greater than 100 µM; in the test with CAKI-1 renal it was greater than 100 µM; in the test on UO-31 renal, 3.31 µM; with EKVX NSCLC it was greater than 100 µM; in the test on K-562 leukemia, greater than 100 µM; in the test with U251 CNS it was greater than 100 µM. The TGI in the test on ACHN renal was greater than 82.2 µM; with OVCAR-8 ovarian, greater than 93.9 µM; in the test with HS 578T breast, 98.2 µM; in the test with A549 NSCLC it was greater than 100 µM.

Regarding `Nc1cccc(/C=C/C(=O)N2CCN(CCOC(c3ccccc3)c3ccccc3)CC2)c1`, the TGI in the test with HCT-116 colon came to 28.9 µM; in the test on CAKI-1 renal, 34.8 µM; with UO-31 renal it was 30.5 µM; in the test with EKVX NSCLC, 36.2 µM; with K-562 leukemia, 26.7 µM; in the test with U251 CNS it was 29.3 µM. Further, the TGI in the test on ACHN renal amounted to 31.6 µM; in the test with OVCAR-8 ovarian it was 35.6 µM; in the test with HS 578T breast, 45.6 µM; in the test on A549 NSCLC, 34.3 µM.

In the case of `COc1cc2c(cc1O)CC[C@@H]1[C@@H]2CC[C@]2(C)[C@@H](OCCN(C)C)CC[C@@H]12`, the GI50 is 1.45 µM in the test with CAKI-1 renal; 0.624 µM in the test with UO-31 renal; 0.527 µM with EKVX NSCLC; 0.15 µM in the test on K-562 leukemia; 0.219 µM in the test on U251 CNS; 0.488 µM with OVCAR-8 ovarian. For the same compound, the GI50 in the test on HS 578T breast was 0.463 µM; with A549 NSCLC, 0.247 µM. Further, the TGI with CAKI-1 renal amounted to 6.19 µM; in the test with UO-31 renal, 1.48 µM; with EKVX NSCLC, 28.5 µM; in the test on K-562 leukemia it was 0.685 µM; with U251 CNS, 0.872 µM; with OVCAR-8 ovarian, 5.88 µM. The TGI amounted to 4 µM with HS 578T breast and 1.19 µM in the test on A549 NSCLC.

In the case of `O=C(OCN1C(=O)C2C3C=CC(C2C1=O)C1C2C(=O)N(COC(=O)C4CCCN4)C(=O)C2C31)C1CCCN1` (stereo unspecified), the TGI in the test with HCT-116 colon was greater than 53.7 µM; with CAKI-1 renal, greater than 100 µM; in the test with UO-31 renal, greater than 100 µM; in the test on EKVX NSCLC it was greater than 100 µM; in the test with K-562 leukemia, greater than 100 µM; with U251 CNS, greater than 67.5 µM. Also, the values for the TGI with ACHN renal, in the test with OVCAR-8 ovarian and with A549 NSCLC were greater than 83.4 µM, 67.5 µM and greater than 100 µM, respectively.

On to `CCOC(=O)C1=NN(c2ccc(C)cc2)C2=CC(C)=NN(C)C(=S)N21`, for which the TGI is greater than 100 µM in the test on HCT-116 colon; 55.1 µM with CAKI-1 renal; greater than 100 µM in the test on UO-31 renal; greater than 100 µM in the test on EKVX NSCLC; greater than 100 µM in the test on K-562 leukemia; greater than 100 µM in the test with U251 CNS. For the same compound, the TGI with ACHN renal, in the test with OVCAR-8 ovarian, in the test on HS 578T breast and in the test on A549 NSCLC was greater than 100 µM in each case.

On to `[N-]=[N+]=CC(=O)c1ccccc1C#CCCc1ccccc1`, for which the TGI is 48.9 µM in the test on HCT-116 colon; greater than 100 µM in the test on UO-31 renal; 75.5 µM in the test on EKVX NSCLC; greater than 100 µM in the test on K-562 leukemia; 88.5 µM with U251 CNS; 68.8 µM with ACHN renal. In addition, the TGI in the test with OVCAR-8 ovarian and in the test with A549 NSCLC was greater than 100 µM each time.
